ChEMBL document CHEMBL1133635, “Caspases as targets for anti-inflammatory and anti-apoptotic drug discovery” (J Med Chem, 2000)
Where a SMILES comes first, the peptide text is derived from it. [ ]: non-standard residue; d: D form. ξ: configuration not given here. ξE = NC(CCC(=O)O)C(=O)O; βAla = NCCC(=O)O

Key:
Caspase-1 [1] = molecular target: T1, Caspase-1 (Homo sapiens, UniProt P29466); experiment: Dissociation constant for inhibition of caspase-1
T1 sequence (P29466 whole entry): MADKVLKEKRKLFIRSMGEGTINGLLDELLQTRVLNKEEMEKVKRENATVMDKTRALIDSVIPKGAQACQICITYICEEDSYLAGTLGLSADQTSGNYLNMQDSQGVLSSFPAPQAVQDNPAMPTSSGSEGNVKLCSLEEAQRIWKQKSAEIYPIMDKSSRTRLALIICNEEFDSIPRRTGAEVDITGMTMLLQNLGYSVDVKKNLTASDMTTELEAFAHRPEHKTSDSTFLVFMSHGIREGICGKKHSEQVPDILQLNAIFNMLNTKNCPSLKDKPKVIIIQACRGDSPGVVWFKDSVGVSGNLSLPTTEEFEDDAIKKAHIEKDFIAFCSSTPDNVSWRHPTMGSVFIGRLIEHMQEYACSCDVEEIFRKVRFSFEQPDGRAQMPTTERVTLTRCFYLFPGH

Caspase-1 [2] = molecular target: T1, Caspase-1; experiment: Compound was evaluated for the inhibitory activity against caspase-1
Caspase-1 (Homo sapiens) [3] = molecular target: T2, Caspase-1 (Homo sapiens) (UniProt P29466)
T2 sequence (whole entry): T1 sequence (P29466 whole entry)
Description: Evaluated for dissociation constant for the inhibition of caspase-1

Caspase-1 (Homo sapiens) [4] = molecular target: T2, Caspase-1 (Homo sapiens); remark: listed apart in the source
Description: Evaluated for kinetic dissociation constant (kon) for the inhibition of caspase-1.

Caspase-3 = molecular target: T3, Caspase-3 (Homo sapiens, UniProt P42574); experiment: Evaluated for the dissociation constant for the inhibition of caspase-3; conditions: read-out: Ki app
T3 sequence (P42574 whole entry): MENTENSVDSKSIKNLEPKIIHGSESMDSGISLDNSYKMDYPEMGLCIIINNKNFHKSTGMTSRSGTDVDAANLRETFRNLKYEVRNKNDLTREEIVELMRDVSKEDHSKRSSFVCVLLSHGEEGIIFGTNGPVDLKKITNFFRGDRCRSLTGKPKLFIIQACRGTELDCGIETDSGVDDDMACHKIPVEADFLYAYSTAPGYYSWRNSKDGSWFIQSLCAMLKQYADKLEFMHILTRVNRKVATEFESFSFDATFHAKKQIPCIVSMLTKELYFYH

Caspase-7 = molecular target: T4, Caspase-7 (Homo sapiens, UniProt P55210); experiment: Evaluated for kinetic dissociation constant […] for the inhibition of caspase-7; conditions: read-out: Ki app
T4 sequence (P55210 whole entry): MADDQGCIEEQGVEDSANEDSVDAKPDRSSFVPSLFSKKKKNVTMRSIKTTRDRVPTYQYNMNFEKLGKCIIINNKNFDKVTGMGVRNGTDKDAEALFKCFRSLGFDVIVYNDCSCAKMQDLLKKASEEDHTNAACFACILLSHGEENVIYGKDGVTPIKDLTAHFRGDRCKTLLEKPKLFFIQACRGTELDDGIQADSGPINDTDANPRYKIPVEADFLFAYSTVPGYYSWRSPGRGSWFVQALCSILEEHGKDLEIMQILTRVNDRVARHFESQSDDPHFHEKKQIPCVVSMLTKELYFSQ

Row | SMILES | Ki (Caspase-1 [1]) [nM] | IC50 (Caspase-1 [2]) [nM] | other results
1 | CC(=O)N[C@@H](Cc1ccc(O)cc1)C(=O)N[C@H](C(=O)N1CC(O)C[C@H]1C(=O)NC(C=O)CC(=O)O)C(C)C (stereo partly drawn) | 2 |  | 
2 | O=C[C@H](CC(=O)O)NC(=O)C1CCC2CCC(NC(=O)OCc3ccccc3)C(=O)N21 (stereo partly drawn) | 36 |  | 
3 | CC(C)[C@H](NC(=O)c1ccc2ccccc2c1)C(=O)N1CCC[C@H]1C(=O)NC(C=O)CC(=O)NS(C)(=O)=O (stereo partly drawn) | 38 |  | 
4 | CCCCC(C(=O)N[C@@H](CC(=O)O)C(=O)COc1ccccc1)n1cncc(NC(=O)c2cccc3ccccc23)c1=O (stereo partly drawn) |  | 46 | 
5 | CC(C)[C@H](NC(=O)OCc1ccccc1)C(=O)N[C@@H](C)C(=O)N[C@@H](CC(=O)O)C(=O)c1nccs1 |  |  | Ki (Caspase-1 [2]): 10000 nM
6 | CC(C)[C@H](NC(=O)OCc1ccccc1)C(=O)N[C@@H](C)C(=O)N[C@@H](CC(=O)O)C(=O)c1ncc[nH]1 |  |  | Ki (Caspase-1 [2]): 8800 nM
7 | CC[C@@H](C(=O)NC(CC(=O)O)C(=O)CNCCc1ccccc1)n1cccc(NC(=O)c2ccc3ccccc3c2)c1=O (stereo partly drawn) |  | 0.37 | 
8 | CC(C)[C@H](NC(=O)OCc1ccccc1)C(=O)N[C@@H](C)C(=O)N[C@@H](CC(=O)O)C(=O)c1ncco1 |  |  | Ki (Caspase-1 [2]): 13000 nM
9 | O=C[C@H](CC(=O)O)NC(=O)[C@@H]1Cc2cccc3c2N1C(=O)[C@@H](NC(=O)c1cccc2ccccc12)CC3 | 10 |  | 
10 | CC(C)[C@H](NC/C=C/c1ccccc1)C(=O)N1CC(O)C[C@H]1C(=O)NC(CC(=O)O)C(=O)COc1ccccc1 (stereo partly drawn) |  | 13 | 
11 | CC(=O)N[C@@H](Cc1ccc(O)cc1)C(=O)N[C@H](C(=O)N[C@@H](C)C(=O)NCCC(=O)O)C(C)C (Ac-YVA[βAla]-OH) | 200000 |  | 
12 | O=C(O)C[C@H](NC(=O)C(c1ccccc1)n1cccc(NC(=O)c2cccc3ccccc23)c1=O)C(=O)COc1ccccc1 (stereo partly drawn) |  | 10 | 
13 | CC(C)[C@H](NC(=O)OCc1ccccc1)C(=O)N[C@@H](C)C(=O)N[C@@H](CC(=O)O)C(=O)c1ncc(-c2ccccc2)o1 |  |  | Ki (Caspase-1 [2]): 240 nM
14 | CC(C)[C@H](NC(=O)OCc1ccccc1)C(=O)N[C@@H](C)C(=O)N[C@@H](CC(=O)O)C(=O)c1nc(-c2ccccc2)c[nH]1 |  |  | Ki (Caspase-1 [2]): 6300 nM
15 | CC(=O)N[C@@H](Cc1ccc(O)cc1)C(=O)N[C@H](C(=O)N[C@@H](C)C(=O)NC(C=O)CC(=O)O)C(C)C (stereo partly drawn) | 0.76 |  | k on (Caspase-1 (Homo sapiens) [4]): 380000 M⁻¹ s⁻¹
16 | CC(C)[C@H](CC(=O)NCCc1cn(C)c2ccccc12)C(=O)NC(CC(=O)O)C(=O)CNS(=O)(=O)CC12CCC(CC1=O)C2(C)C (stereo partly drawn) |  | 0.4 | 
17 | O=C[C@H](CC(=O)O)NS(=O)(=O)c1ccccc1OCCc1cccc2ccccc12 | 62 |  | 
18 | CC(=O)N[C@@H](Cc1ccc(O)cc1)C(=O)N[C@H](C(=O)N[C@@H](C)C(=O)NC(C=O)CCC(=O)O)C(C)C (stereo partly drawn) (Ac-YVA[ξE]-aldehyde) | 9 |  | 
19 | CC(C)[C@H](NC(=O)c1ccccc1)C(=O)N(CC(=O)NC(CC(=O)O)C(=O)c1nc2ccccc2o1)C1Cc2ccccc2C1 (stereo partly drawn) |  | 2 | 
20 | CN1C(=O)C(=O)c2cc(S(=O)(=O)N3CCC[C@H]3COc3ccccc3)ccc21 |  |  | Ki (Caspase-3): 15 nM; Ki (Caspase-7): 47 nM

Further lines, with some results ahead:

Row | Ki (Caspase-1 [1]) [nM] | IC50 (Caspase-1 [2]) [nM] | SMILES | other results
21 | 17 |  | CC(C)[C@H](NC(=O)OCc1ccccc1)C(=O)N[C@@H](C)C(=O)NC(CC(=O)O)C(=O)COc1ccc2ccc(=O)oc2c1 (stereo partly drawn) | 
22 |  | 18.5 | CC(=O)N[C@@H](Cc1ccc(O)cc1)C(=O)N[C@H](C(=O)N[C@@H](C)C(=O)NC(CC(=O)O)C(=O)CCCCCc1ccccc1)C(C)C (stereo partly drawn) | 
23 |  | 1.7 | CC(C)[C@H](NC(=O)OCc1ccccc1)C(=O)N[C@@H](C)C(=O)NC(CC(=O)O)C(=O)COc1cc2ccccc2cc1C(N)=O (stereo partly drawn) | k on (Caspase-1 (Homo sapiens) [3]): 430000 M⁻¹ s⁻¹
24 | 9 |  | CC(=O)N[C@@H](Cc1ccc(O)cc1)C(=O)N[C@H](C(=O)N[C@@H](C)C(=O)N[C@@H](CC(=O)O)C(=O)C(=O)NCCc1ccccc1)C(C)C | 
25 |  | 1.9 | CC(C)[C@H](NC(=O)OCc1ccccc1)C(=O)N[C@@H](C)C(=O)NC(CC(=O)O)C(=O)COC(=O)CCc1ccccc1 (stereo partly drawn) | 
